Measurements from patent US7723370B2, “1, 2-diaryl pyrazoles useful as analgetic and antiinflammatory agents” (Richter Gedeon Vegyeszeti Gyar RT., priority 2005, dated 2010).

Key:
Assay type in all cases: in vivo, rat
[1] = system: carrageenan induced paw oedema; assay: Inhibition of carrageenan induced oedema in rats; conditions: for ED30: p.o.
Procedure: The treated paw was immersed up to the tibio-tarsal articulation into the chamber and the volume of displaced liquid was determined as the degree of the inflammation. Degree of inflammation (ml)=volume after the CARR treatment (ml)−volume before the CARR treatment (ml)
The degree of the anti-inflammatory effect of the treated group (which obtained test agent) was compared to that of the control group (which obtained only vehicle). The test compound and the vehicle were given orally by blunt-ended needle cannula one hour before the CARR treatment. The volume of the treated paw was measured at 3 and 5 hours after the CARR treatment and the change in the degree of inflammation in % was calculated according to the following formula: Anti-inflammatory activity %=100×[control group (ml)−treated group (ml)/control group (ml)]
[…] Anti-inflammatory activity of the compounds was determined in % at 4 and 6 hours after p.o. treatment and ED30 was calculated.

[2] = system: carrageenan induced acute hyperalgesia; assay: Carrageenan induced acute hyperalgesia in rats (Randall-Selitto model)
Procedure: (§1) Oedema (inflammation) was induced by subcutaneous injection of carrageenan (CARR) suspension in the subplantar region of the right hind paw of male Wistar rats, weighted 140-190 g (n=8-12 animal/group). The nociceptive thresholds of the inflamed hind paw after painful mechanical stimuli were measured with analgesimeter (Ugo Basile, type: 37215, Italy). The apparatus is suitable for the measuring of the extent and the latency of the pain reaction threshold of the sensitized paw after painful stimuli. The analgesics elevate the low pain reaction threshold of inflamed paw and the degree of its antinociceptive effect is expressed in reversal %.
(§2) An increasing pressure was applied to the paw and the withdrawal threshold was determined as the first sign (squeaking and/or struggling) of pain response. The pressure threshold was shown in grams. The average value of the hind paw withdrawal obtained with untreated right paw was regarded as the basal hind paw withdrawal (average 80-110 grams.) After determining the baseline threshold the animals received carrageenan injection that produced an intense inflammation associated with hyperalgesia. The mechanical threshold was determined at various times to establish the magnitude and duration of the hyperalgesia. The maximum reduction in threshold was measured 2-3 h after injection (the pain threshold of the inflamed paw is 20-30 g, which was decreased by 65-80% in comparing to the basic value).
(§3) Acute hvneralgesia model: the animals were treated with the test compounds and celecoxib (10 and 30 mg/kg p.o.) one hour after CARR treatment (100 μl 2% suspension). Pain threshold was measured at 2 and 4 hours after the treatment. Chronic hyperalgesia model: extended inflammation and decreased pain threshold were induced with higher dose of CARR. Pain threshold of inflamed paw was measured 24 hours after CARR treatment (150 μl, 2% suspension) then test compound and Celecoxib (30 mg/kg p.o.) were given to the animals. Pain threshold of treated paw was measured from 30 minutes till 3 hours after treatment.
(§4) Control groups in both models after CARR treatment were treated with vehicle p.o. at the same intervals as the test compounds. In both models the analgesic effect of the compounds was expressed in the reversal (%) of the decrease of the pain threshold. Reversal %=[mean of treated groupTxh(g)−treated groupT0h(g)]/[basic mean of treated groupT-1h(g)−treated groupT0h(g)] • T−1 h=mean of the pain threshold of paw before CARR treatment in acute model (g) • T0h=mean of the pain threshold before treatment 1 hour after CARR treatment in acute model (g) • T×h=pain threshold after CARR treatment in the measuring times (1 h, 2 h, 3 h) in acute model (g)

[3] = system: carrageenan induced chronic hyperalgesia; assay: Carrageenan induced chronic hyperalgesia model in rats (Randall-Selitto); conditions: for Analgesic effect (reversal %) after p.o. treatment: chronic model, 30 mg/kg p.o.
Procedure: as §1, §2, §3, §4

[4] = system: alcohol induced mucosa injury; assay: Gastric lesions induced by acidified alcohol in rats; conditions: 40 minutes before ethanol+HCl, n = 10
Procedure: Male Wistar rats weighing 140-160 g were treated p.o. with a 1:0.02 mixture of dry ethanol and concentrated HCl (0.5 ml) in order to induce gastric lesions. One hour later the animals were euthanized with ether and the stomach excised along its greater curvature, the mucosa was examined for the presence of lesions.
Severity of lesions: • 1: petechiae or erosion with length of 1 mm • 2: erosion with length between 2 and 3 mm • 3: erosion with length between 3 and 4 mm • 4: erosion with length between 4 and 5 mm
If the lesion was longer than 5 mm, it was scored 4 point as many times as the total length of the lesion divisible by four and the rest of the length was evaluated according to the above scale. The degree of injury of mucosa was characterized by ulcer index. Ulcer index (severity of lesion×number of lesion) was calculated for every animal and the degree of injury of mucosa in the groups of tested animals was characterized by the mean of ulcer index of different groups of animals.
Test compounds were given p.o. 40 minutes before the ethanol+HCl treatment

[5] = system: acetic acid induced chronic gastric ulcer; assay: Acetic acid induced chronic gastric ulcer in rats
Procedure: In our experiments the method […] of Okabe et al was used. Male Wistar rats of 150-170 g were narcotize part of the stomach.
The test compound was given p.o. on the fifth day after the operation for seven days. The animals were euthanized with ether after 24 hours of the last dose and the abdomen was macroscopically examined (exravasation, accretion), the stomach was excised and the diameters of ulcers were measured.

[6] = system: myocardial ischemia-reperfusion induced injury; assay: Myocardial ischemia-reperfusion induced injury in rats (cardioprotective effect); conditions: 30 mg/kg i.p. 30 minutes before occlusion; control group 90%
Procedure: Effect of compound of Example 5 and celecoxib was determined in experimental myocardial ischemia-reperfusion induced injury.
Myocardial infarction was produced in male, SPRD CFY rats of 300-360 g by surgical occlusion of left anterior descending coronary artery. Briefly, the animals were anesthetized with pentobarbital (60 mg/kg i.p.) and the chest was opened, the left coronary artery was ligated for 6 minutes followed by reperfusion. Test compounds were administered i.p. in 30 and 60 mg/kg dose 30 minutes before occlusion of the coronary artery. The control group was treated with vehicle (5% TWEEN 80 in isotonic NaCl, […]).

[7] = system: carrageenan induced chronic hyperalgesia; assay: Carrageenan induced chronic hyperalgesia model in rats (Randall-Selitto)
[8] = inflammation induced chronic hyperalgesia model

Cc1ccc(-c2cc(C(F)(F)F)nn2-c2ccc(S(=O)(=O)NOC(C)C(=O)O)cc2)cc1 (racemic) [Example 5, (R,S)-2-[4-(5-p-methylphenyl-3-trifluoromethyl-pyrazol-1-yl)-benzensulfonylamino-oxy]-propionic acid]
Inhibiton of carrageenan induced edema % ([1]; 3 mg/kg p.o., 4 hours after treatment): 21 ± 3%
Inhibiton of carrageenan induced edema % ([1]; 3 mg/kg p.o., 6 hours after treatment): 20 ± 3%
Inhibiton of carrageenan induced edema % ([1]; 10 mg/kg p.o., 4 hours after treatment): 40 ± 4%
Inhibiton of carrageenan induced edema % ([1]; 10 mg/kg p.o., 6 hours after treatment): 34 ± 5%
Inhibiton of carrageenan induced edema % ([1]; 30 mg/kg p.o., 4 hours after treatment): 49 ± 5%
Inhibiton of carrageenan induced edema % ([1]; 30 mg/kg p.o., 6 hours after treatment): 40 ± 4%
anti-inflammatory activity compared with celecoxib ([1]; CARR induced oedema test): significantly (p<0.05) higher
ED30 ([1]; 4 hours after treatment): 5.7 mg/kg
ED30 ([1]; 6 hours after treatment): 8.4 mg/kg
Analgesic effect (reversal %) after p.o. treatment ([2]; 10 mg/kg p.o., 1 hour): 24%
Analgesic effect (reversal %) after p.o. treatment ([2]; 10 mg/kg p.o., 2 hour): 30%
Analgesic effect (reversal %) after p.o. treatment ([2]; 10 mg/kg p.o., 3 hour): 15%
Analgesic effect (reversal %) after p.o. treatment ([2]; 30 mg/kg p.o., 1 hour): 89%
Analgesic effect (reversal %) after p.o. treatment ([2]; 30 mg/kg p.o., 2 hour): 59%
Analgesic effect (reversal %) after p.o. treatment ([2]; 30 mg/kg p.o., 3 hour): 35%
Analgesic effect (reversal %) after p.o. treatment ([3]; 30 min): 42%
Analgesic effect (reversal %) after p.o. treatment ([3]; 1 hour): 54%
Analgesic effect (reversal %) after p.o. treatment ([3]; 2 hour): 34%
Analgesic effect (reversal %) after p.o. treatment ([3]; 3 hour): 19%
analgesic effect [3, 8]: significant analgesic effect (p<0.01)
duration of action compared with the reference compound [3, 8]: several hours longer
Ulcer index ([4]; 15 mg/kg p.o.): 43.0 ± 4.4
Ulcer index ([4]; 30 mg/kg p.o.): 35.0 ± 4.4
Ulcer index ([4]; 60 mg/kg p.o.): 15.8 ± 2.8
Area of ulcer (mm^2) ([5]; 30 mg/kg p.o. for seven days): 2.4 ± 0.7 mm^2
Change of bodyweight (g) + (increase) − (decrease) ([5]; 30 mg/kg p.o. for seven days): +43 ± 5 g
Recovery of acetic acid induced ulcer ([5]; p.o. for seven days): did not influence it
occurrence of serious, not mortal ventricular fibrillation during reperfusion [6]: 60%
Analgesic effect (reversal %) after p.o. treatment ([7]; 10 mg/kg p.o., 30 min): 23%
Analgesic effect (reversal %) after p.o. treatment ([7]; 10 mg/kg p.o., 1 hour): 22%
Analgesic effect (reversal %) after p.o. treatment ([7]; 10 mg/kg p.o., 2 hour): 28%
Analgesic effect (reversal %) after p.o. treatment ([7]; 10 mg/kg p.o., 3 hour): 14%
Analgesic effect (reversal %) after p.o. treatment ([7]; 10 mg/kg p.o., 4 hour): 11%
Analgesic effect (reversal %) after p.o. treatment ([7]; 30 mg/kg p.o., 4 hour): 19%
